Source: US8383637B2, “2-amino-quinazoline derivatives useful as inhibitors of β-secretase (BACE)” (Jansssen Pharmaceutica N.V., priority 2004, dated 2013)
Where “and” joins values, the source holds several entries; their conditions need not be identical. Equal entries are not always repeated. Where two headings read alike, the source gives them in different places.

Columns and labels:
Format in all cases: biochemical
β-secretase(BACE) [1] = target: T1, β-secretase(BACE) (Homo sapiens, UniProt P56817); experiment: BACE FS1% Inhibition Assay; settings: FS1 substrate; for inhibition at 0.3 µM / % Inhibition (FS) 0.3 μM: 0.3 μM test compound; for inhibition at 0.3 µM: read-out: % Inhibition (FS) 0.3 μM; for inhibition at 1 µM / % Inhibition (FS) 1 μM: 1 μM test compound; for inhibition at 1 µM: read-out: % Inhibition (FS) 1 μM; for inhibition at 3 µM / % Inhibition (FS) 3 μM: 3 μM test compound
T1 construct: purchased Panvera
Outline: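 Percent inhibition at each tested concentration, referenced to enzyme-free blank and vehicle-only positive control. Reaction: compound and BACE (4 μg/mL working stock) mixed 20 min at room temperature before FS1 substrate (300 μg/mL working stock), then 1 h at room temperature.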

β-secretase(BACE) [2] = target: T1, β-secretase(BACE); experiment: BACE Assay-2 (FS1 substrate, IC50 and Ki); settings: procedure of Example 159, FS1 substrate; for Ki: read-out: Ki μM (159)
β-secretase(BACE) [3] = target: T1, β-secretase(BACE); experiment: BACE Assay-1 (MCA-substrate, IC50); settings: procedure of Example 158; read-out: IC50 μM (158)
Protocol: The following standards are reagents were used in this assay: Sodium Citrate trisodium salt dihydrate (Sigma), Citric Acid monohydrate (Merck), PEG8000 (Sigma), MCA-substrate (Bachem), β-secretase (BACE) (Panvera), 96-well plate zwart (Costar (Elscolab)), StatVal (Bachem).
The following standard assay buffer solution was prepared and used in this assay: 0.05 M, pH 5.0 mixture of sodium citrate trisodium salt dihydrate (9.56 g), citric acid monohydrate (3.68 g) and PEG8000 (0.50 g).
The MCA-substrate stock solution was prepared by mixing 10 mg MCA-substrate with 5 mL DMSO for a final solution concentration of 2.0 mg/mL. The substrate work solution was prepared by mixing 0.1 mL substrate in 1.90 mL assay buffer for a final concentration of 0.05 mM. The β-secretase (BACE) work solution was prepared by mixing 8 μL BACE in 2 mL assay buffer for a final concentration of 10 μg/mL.
The screen procedure for this assay was as follows. 60 μL of assay buffer was pippeted into each well of a 96-well plate. To each well was then pipetted 1 μL of test compound at the selected concentration. To each well was then added 20 μL of the β-secretase work solution and 20 μL of the MCA-substrate stock solution.
The procedure for the blank was as follows. 80 μL of assay buffer was pipetted into each well to be used as a blank control. To each well was then added 1 μL of DMSO and 20 μL of MCA-substrate solution in each well.
The procedure for the positive control was as follows. 60 μL of assay buffer was pipetted into each well to be used as a positive control. To each well was then added 1 μL of DMSO, 20 μL of BACE work solution and 20 μL of MCA-substrate stock solution.
For test compounds, measured at multiple concentrations, the measured T0 and T60 values were used to calculate an IC50 value using Graphpad Software (or PIR).

[4] = read-out: % Inhibition (FS) 3 μM
[5] = 10 μM test compound, read-out: % Inhibition (FS) 10 μM

T1 sequence (P56817 46-501): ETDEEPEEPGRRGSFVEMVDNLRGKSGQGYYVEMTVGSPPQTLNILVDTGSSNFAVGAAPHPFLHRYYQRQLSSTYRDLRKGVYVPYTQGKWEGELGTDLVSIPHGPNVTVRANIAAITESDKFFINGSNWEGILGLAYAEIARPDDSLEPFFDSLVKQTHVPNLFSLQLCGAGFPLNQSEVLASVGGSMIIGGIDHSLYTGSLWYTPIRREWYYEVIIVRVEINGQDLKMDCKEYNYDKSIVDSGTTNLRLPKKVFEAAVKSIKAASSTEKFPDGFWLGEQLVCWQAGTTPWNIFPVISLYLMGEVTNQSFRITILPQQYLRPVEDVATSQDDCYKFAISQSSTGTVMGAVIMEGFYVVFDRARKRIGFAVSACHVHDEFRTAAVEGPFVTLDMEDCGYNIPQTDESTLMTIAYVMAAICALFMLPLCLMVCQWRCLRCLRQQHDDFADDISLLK

| inhibition at 0.3 µM (β-secretase(BACE) [1]) [%] | inhibition at 1 µM (β-secretase(BACE) [1]) [%] | inhibition at 3 µM (β-secretase(BACE) [1]; [4]) [%] | Ki (β-secretase(BACE) [2]) | IC50 (β-secretase(BACE) [3]) [µM] | SMILES | further results |
| --- | --- | --- | --- | --- | --- | --- |
| < 30 | 60 | 108 | 0.19 µM | 0.089 | CN(C(=O)c1cccc(CN2Cc3cc(-c4ccccc4Br)ccc3N=C2N)c1)C1CCCCC1 [Compound 331] | – |
| – | – | – | 0.23 µM | 0.15 | CCCC(CCCC(=O)N(C)C1CCN(C)CC1)N1Cc2cc(Oc3ccccc3)ccc2N=C1N (stereo not shown) [Compound 106] | % Inhibition (FS) 3 μM (β-secretase(BACE) [1]): 103%; % Inhibition (FS) 10 μM (β-secretase(BACE) [1]; 10 μM test compound): 114% |
| – | – | 101 | 0.21 µM | 0.45 | NC1=Nc2ccc(Oc3ccccc3)cc2CN1CCNC(=O)C1CCC1 [Compound 130] | inhibition at 10 µM (β-secretase(BACE) [1]; [5]): 123% |
| – | – | 113 | 0.12 µM | 0.1 | CCCC(CCC(=O)NC1CCCCC1)N1Cc2cc(Oc3ccccc3)ccc2N=C1N (stereo not shown) [Compound 129] | inhibition at 10 µM (β-secretase(BACE) [1]; [5]): 113% |
| < 30 | 66 | 114 | 0.21 µM | 0.048 | CN(C(=O)c1cccc(CN2Cc3cc(-c4cccc5ccccc45)ccc3N=C2N)c1)C1CCCCC1 [Compound 330] | – |
| < 30 | 62 | 106 | 0.27 µM | 0.078 | NC1=Nc2ccc(Oc3ccccc3)cc2CN1CCNC(=O)NC12CC3CC(CC(C3)C1)C2 [Compound 206, 1-Adamantan-1-yl-3-[2-(2-amino-6-phenoxy-4H-quinazolin-3-yl)-ethyl]-urea] | – |
| 19.9 | 66 | 102 | 0.28 µM | 0.067 | CN(C(=O)c1cccc(CN2Cc3cc(Sc4ccccc4)ccc3N=C2N)c1)C1CCCCC1 [Compound 476] | – |
| 86 | 109 | 116 | 0.065 µM | 0.043 | COc1ccccc1-c1ccc2c(c1)CN(C(CCC(=O)N(C)C1CCCCC1)C1CCCCC1)C(N)=N2 (stereo not shown) [Compound 227] | – |
| – | – | 109 | 0.27 µM | 0.079 | CN(C(=O)CCCCN1Cc2cc(Oc3cccc(NS(=O)(=O)c4ccccc4)c3)ccc2N=C1N)C1CCCCC1 [Compound 114] | inhibition at 10 µM (β-secretase(BACE) [1]; [5]): 126% |
| 94 | 109 | 118 | 0.02 µM | 0.016 | NC1=Nc2ccc(Oc3ccccc3)cc2CN1C(CNC(=O)C1CCCCC1)C1CCCCC1 (stereo not shown) [Compound 294, Cyclohexanecarboxylic acid [2-(2-amino-6-phenoxy-4H-quinazolin-3-yl)-2-cyclohexyl-ethyl]-amide] | – |
| 92 | 109 | 118 | 0.02 µM | 0.012 | CCOc1ccccc1-c1ccc2c(c1)CN(Cc1cccc(C(=O)N(C)C3CCCCC3)c1)C(N)=N2 [Compound 329] | – |
| 103 | 72 | 102 | 0.2 µM | 0.45 | CC(C)OC(=O)NCCN1Cc2cc(Oc3ccccc3)ccc2N=C1N [Compound 220, [2-(2-Amino-6-phenoxy-4H-quinazolin-3-yl)-ethyl]-carbamic acid isopropyl ester] | – |
| < 30 | 72 | 108 | 0.14 µM | 0.05 | CCCC(CCC)C(=O)NCC(C1CCCCC1)N1Cc2cc(Oc3ccccc3)ccc2N=C1N (stereo not shown) [Compound 302] | – |
| – | – | – | 0.33 µM | 0.39 | CC(C)(C)OC(=O)NCC(c1ccccc1)N1Cc2cc(Oc3ccccc3)ccc2N=C1N (stereo not shown) [Compound 258] | % Inhibition (FS) 0.3 μM (β-secretase(BACE) [1]): <30%; % Inhibition (FS) 1 μM (β-secretase(BACE) [1]): 46%; % Inhibition (FS) 3 μM (β-secretase(BACE) [1]): 72% |
| 46 | 85 | 111 | 0.074 µM | 0.14 | CN(CCN1Cc2cc(Oc3ccccc3)ccc2N=C1N)C(=O)OC(C)(C)C [Compound 425, [2-(2-Amino-6-phenoxy-4H-quinazolin-3-yl)-ethyl]-methyl-carbamic acid tert-butyl ester] | – |
| – | – | 107 | 0.23 µM | 0.062 | CCC(c1cccc(C(=O)N(C)C2CCCCC2)c1)N1Cc2cc(Oc3ccccc3)ccc2N=C1N (stereo not shown) [Compound 204, 3-[1-(2-Amino-6-phenoxy-4H-quinazolin-3-yl)-propyl]-N-cyclohexyl-N-methyl-benzamide] | % Inhibition (FS) 0.3 μM (β-secretase(BACE) [1]; 0.3 µM): <30% and 54%; % Inhibition (FS) 1 μM (β-secretase(BACE) [1]; 1 µM): 66% and 97%; % Inhibition (FS) 3 μM (β-secretase(BACE) [1]; 3 µM): 115% |
| 100 | 112 | 123 | 0.017 µM | 0.012 | NC1=Nc2ccc(Oc3ccccc3)cc2CN1[C@@H](CNC(=O)C1CCCCC1)C1CCCCC1 [Compound 485, Cyclohexanecarboxylic acid [2-(2-amino-6-phenoxy-4H-quinazolin-3-yl)-2-(R)-cyclohexyl-ethyl]-amide] | – |
| – | – | 106 | 0.22 µM | 0.074 | CCCC(CCCC(=O)N(C)C1CCCCC1)N1Cc2cc(Oc3ccccc3)ccc2N=C1N (stereo not shown) [Compound 90] | inhibition at 10 µM (β-secretase(BACE) [1]; [5]): 124% |
| 51 | 78 | 102 | 0.12 µM | 0.54 | COc1ccc(NC(=O)C(C)(C)C)c(-c2ccc3c(c2)CN(Cc2cccc(C(=O)N(C)C4CCCCC4)c2)C(N)=N3)c1 [Compound 160] | – |
| 85 | 106 | 111 | 0.07 µM | 0.085 | CN(C(=O)c1cccc(CN2Cc3cc(-c4ccccc4CO)ccc3N=C2N)c1)C1CCCCC1 [Compound 174] | – |
| – | – | 100 | 0.08 µM | 0.15 | CC(C)(C)C(=O)NCCN1Cc2cc(Oc3ccccc3)ccc2N=C1N [Compound 141] | inhibition at 10 µM (β-secretase(BACE) [1]; [5]): 102% |
| 48 | 93 | 106 | 0.19 µM | 0.058 | CCCC(CCC)C(=O)NCCN1Cc2cc(Oc3ccccc3)ccc2N=C1N [Compound 183] | – |
| 100 | 112 | 113 | 0.03 µM and 0.05 µM | 0.014 | COc1ccccc1-c1ccc2c(c1)CN(Cc1cccc(C(=O)N(C)C3CCCCC3)c1)C(N)=N2 [Compound 167, 3-[2-Amino-6-(2-methoxy-phenyl)-4H-quinazolin-3-ylmethyl]-N-cyclohexyl-N-methyl-benzamide] | % Inhibition (FS) 0.3 μM (β-secretase(BACE) [1]; 0.3 µM): 91%; % Inhibition (FS) 1 μM (β-secretase(BACE) [1]; 1 µM): 110%; % Inhibition (FS) 3 μM (β-secretase(BACE) [1]; 3 µM): 118% |
| – | – | – | 0.27 µM | 0.21 | CCCN1Cc2cc(Oc3cccc(NC(=O)CCCC(=O)N(C)C4CCCCC4)c3)ccc2N=C1N [Compound 755] | inhibition at 3 µM (β-secretase(BACE) [1]; read-out: % Inhibition (FS)): 59%; inhibition at 10 µM (β-secretase(BACE) [1]; 10 μM test compound, read-out: % Inhibition (FS)): 79%; IC50 (β-secretase(BACE) [2]): 1.9 µM |
| < 30 | 75 | 110 | 0.23 µM | 0.22 | COc1ccc(C(CCC(=O)N(C)C2CCCCC2)N2Cc3cc(Oc4ccccc4)ccc3N=C2N)cc1 (stereo not shown) [Compound 298] | – |
| < 30 | 71 | 111 | – | 0.054 | Cc1ccc(C(CCC(=O)N(C)C2CCCCC2)N2Cc3cc(Oc4ccccc4)ccc3N=C2N)cc1 (stereo not shown) [Compound 421] | – |
| – | – | – | 1.2 µM | 3.1 | NC1=Nc2ccc(C(=O)c3ccccc3)cc2CN1CCCOc1ccccc1 [Compound 8] | IC50 (β-secretase(BACE) [2]): 15 µM |
| – | – | – | – | 2.37 | CCCN1Cc2cc(Oc3cccc(NS(=O)(=O)c4cccc(C#N)c4)c3)ccc2N=C1N [Compound 270] | – |
| – | – | – | – | > 10 | CCCN1Cc2cc(Oc3cccc(NS(=O)(=O)c4cc(C(=O)O)ccc4OC)c3)ccc2N=C1N [Compound 279] | – |
| – | – | – | – | 0.89 | CCCN1Cc2cc(Oc3cccc(NS(=O)(=O)c4ccsc4)c3)ccc2N=C1N [Compound 240] | – |
